≈ marks a conversion by molar mass, not a printed value. Bounds are passed on as bounds.

Data set [1] has as its system P. aeruginosa in Raw 264.7 macrophage. The data set can be described thus: Antibacterial activity for intracellular infection. The following applies: Raw 264.7 infected with P. aeruginosa, pH 7.4 and 6.0, 1 day. Format: cell-based. On the procedure:
Antibacterial activity for intracellular infection. The antibacterial activity for intracellular infection was tested following the previous report. Briefly, macrophage Raw 264.7 cells were seeded in 96-well plate at a density of 1×10^4 cell/swell overnight and infected with MRSA or P. aeruginosa at a ratio of 10-20 bacteria per macrophage in FBS free RPMI 1640 medium. After 3 h incubation, the cells were washed and cultured in 1640 medium containing 10% FBS and 50 μg/mL gentamycin for one day to prevent the growth of extracellular bacteria. Then the macrophages were treated with free streptomycin or PDC for another day and lysed with Milli-Q water supplemented with 0.1% Triton-X. The cell lysates were serially diluted and the CFU in each well was determined by plating on MHB agar plates.

For data set [2], the system named is E. coli ATCC 25922. The data set can be described thus: Live/Dead bacterial staining assay (AO/EB). Type of data set: cell-based. Particulars: 0.5 h and 3 h. On the procedure: Live/Dead bacterial staining assay. Exponentially growing bacteria (E. coli ATCC 25922) were collected by centrifugation at 8000 rpm for 5 min, washed with saline and diluted to OD 600 value of 0.5. The bacterial suspensions were incubated with different treatments at 37° C. for 0.5 h and 3 h, and then washed with saline and stained by acridine orange (10 μg/mL) and ethidium bromide (EB, […]) solution for 15 min. Afterward, the bacteria were collected via centrifugation, washed with saline for 2 times, resuspended in 70% glycerol and spread on glass slides. The live/dead bacteria were observed by a confocal laser scanning microscope (CLSM).

A further data set has as its system MRSA biofilm. The data set can be described thus: Biofilm inhibition assay (crystal violet). Type of data set: cell-based, S. aureus. The following applies: 512 μg/mL free streptomycin, 24 h. On the procedure:
(§1) Biofilm inhibition assays. Exponentially growing bacteria were inoculated into 96 well plates (1×10^4 cell/well) containing MHB broth with 2% (v/w) glucose, incubated under stationary conditions at 37° C. for one day. After biofilm formation, the media was discarded and the plates were washed with PBS to remove the planktonic bacteria. Fresh NMB broth containing serially diluted free streptomycin or PDC were added to the plates and incubated at 37° C. for another 24 h. The media in each well was then removed, and the plates were washed carefully with PBS for 1 time. The biofilm in each well was fixed with 95% ethanol for 15 min and stained with 0.1% crystal violet for 15 min. After washing with Milli-Q water for three times, 33% v/v acetic acid (100 μL/well) was added to solubilize the crystal violet staining. OD 560 in each well was read to determine the biofilm formation. The biofilm formed as described above was also stained with acridine orange and Cy5 labeled PDC, and monitored by CLSM to observe the PDC penetration.

Data set [3] has as its system E. coli ATCC 25922. The data set can be described thus: Evaluation of antibiotic resistance development (serial passaging). Type of data set: cell-based. The following applies: sub-lethal dose (0.5 MIC). On the procedure:
Evaluation of antibiotic resistance development. E. coli ATCC 25922 was employed to study the drug resistance development under sublethal dose treatments of free streptomycin, cationic polymer or the PDC. During a serial of passages, the MIC of each treatment was measured by the broth microdilution method as described above, and the bacteria were exposed to ½MIC at that particular passage. MIC for each passage was recorded and normalized to that of the first passage to determine the drug resistance enhancement.

For data set [4], the system named is P. aeruginosa (ATCC 27853). The data set can be described thus: MIC, broth microdilution. Type of data set: cell-based. The following applies: 24 h, no pH given. On the procedure:
(§2) Bacterial strains. S. aureus Newman was kindly provided by Prof Douglas Weibel; E. coli ATCC25922, S. aureus ATCC 33591 and P. aeruginosa ATCC 27853 were kindly donated by Prof. David Andes. E. coli DH5a was purchased from Thermo Fisher. The bacteria above were grown in Mueller Hinton Broth (MHB) media (Criterion, Santa Maria, Calif., USA). M. smegmatis mc^2155 strain was kindly donated by Prof. Adel M. Talaat, and was grown in Middlebrook 7H9 broth (HiMedia, West Chester, Pa., USA).
(§3) Minimal inhibitory concentration (MIC) measurements. The MIC of the different treatments on various bacteria strains was determined using the broth microdilution method. Briefly, 100 μL of the respective broth media containing serial twofold dilutions of each compound was placed into a 96-well tissue culture plate. Each bacterial strain was taken from an exponentially growing culture and diluted to 5×10^6 CFU/mL. 10 μL of such microbial suspension was inoculated in each well of the plate, resulting in a final bacteria concentration of approximately 5×10^5 CFU/mL. The bacteria were cultured at 37° C. for 24 h and their growth were observed by reading the optical density (OD) at 600 nm. The MIC was determined as the treatment concentration at which no microbial growth was observed. Broth containing microbial cells alone was used as a positive control and broth without bacteria inoculation was used as a negative control. Each test was carried out in 3 replicates.
In general terms: In broth dilution the organism is exposed to a series of concentrations in liquid medium.

Data set [5] has as its system S. aureus (MRSA ATCC33591). The data set can be described thus: MIC, broth microdilution. Particulars: 24 h, no pH given. Format: cell-based. On the procedure:
as §2, §3

A further data set deals with E. coli (ATCC 25922). The data set can be described thus: MIC, broth microdilution. The following applies: 24 h, no pH given. Type of data set: cell-based. On the procedure: as §2, §3
The test system of the next data set is E. coli (DH5 alpha). The data set can be described thus: MIC, broth microdilution. Type of data set: cell-based. Particulars: 24 h, no pH given. On the procedure:
as §2, §3

The test system of a further data set is S. aureus (Newman). The data set can be described thus: MIC, broth microdilution. Format: cell-based. Particulars: 24 h, no pH given. On the procedure:
as §2, §3

The next data set has as its system M. smegmatis (MC^2 155). The data set can be described thus: MIC, broth microdilution. Format: cell-based. The following applies: 24 h, no pH given. On the procedure:
as §2, §3

The subject of the next data set is P. aeruginosa ATCC 27853. The data set can be described thus: Mouse lung infection model. Format: in vivo, ICR mice. The following applies: 2 i.v. injections (1 h and 8 h after the infection). On the procedure: Mouse lung infection model. […] In another experiment of monitoring the mice survival for the lung infection model, the P. aeruginosa infected mice were given 2 treatments (1 h and 8 h after the infection) and their survival was observed using Kaplan-Meier curves (n=5).

A further data set relates to E. coli biofilm. The data set can be described thus: Biofilm inhibition assay (crystal violet). Type of data set: cell-based. The following applies: 512 μg/mL free streptomycin, 24 h. On the procedure:
as §1

For the next data set, the system named is P. aeruginosa biofilm. The data set can be described thus: Biofilm inhibition assay (crystal violet). Format: cell-based. Particulars: 256 μg/mL streptomycin. On the procedure: as §1
The next data set concerns human red blood cells. The data set can be described thus: Hemolysis assay. Type of data set: cell-based. On the procedure: Hemolysis assay. […] The antibacterial polymer and PDC with different charges were serial diluted with PBS and placed in 96-well plates (100 μL/well). The blood cell suspension (10 μL/well) was added into the wells and incubated at 37° C. for 1 h to allow the complete hemolysis process. […] Following centrifugation at 3000 rpm for 7 min, the supernatant (70 μL/well) was transferred to another clean 96-well plate. OD 560 in each well was monitored by a microplate reader, and hemolysis was calculated using the following formula: […]

Data set [6] deals with broad spectrum of microbes. The data set can be described thus: MIC, broth microdilution, across the strains tested. The following applies: E. coli, MRSA, P. aeruginosa (FIGS. 3G-I). Format: cell-based. On the procedure:
as §2
as §3, with “Broth containing microbial cells alone was used as a positive control and broth without bacteria inoculation was used as a negative control. Each test was carried out in 3 replicates.” left out

Data set [7] has as its system HEK 293 human embryonic kidney cells. The data set can be described thus: Cell viability test (MTT cytotoxicity). Type of data set: cell-based. The following applies: 48 h, no pH given. On the procedure: Cell viability test. Cytotoxicity of different components was tested through MTT assays. HEK 293 human embryonic kidney cells were seeded onto a 96-well plate (1×10^4 cells/well) and cultured overnight. The cells were then treated with various polymers or PDCs with serial dilutions for 48 h and their viability was measured by a standard MTT assay. Data were collected by monitoring the difference between the absorbance at 560 nm and 650 nm using a GloMax-Multi Microplate Multimode Reader (Promega, Wis., USA).

With `[H]/N=C(/N)N[C@H]1[C@H](O)[C@@H](O)[C@H](O[C@@H]2O[C@@H](C)[C@](O)(C=O)[C@H]2O[C@@H]2O[C@@H](CO)[C@H](O)[C@@H](O)[C@@H]2NC)[C@@H](N/C(N)=N\[H])[C@@H]1O` [Streptomycin, streptomycin, reference compound], the “antibacterial efficacy on intracellular bacteria (CFU), in words” value in data set [1] is given as “did not show much therapeutic efficacy”. Further, the “bactericidal effect / EB staining, in words” value in the data set with E. coli ATCC 25922 [2] is “little EB infiltration at 3 h”. The biofilm remaining result with MRSA biofilm and in the data set with E. coli biofilm was “more than 50%” in each case. In the data set on E. coli ATCC 25922 [3], the “increase in MIC after 20 passages” value is 10 fold. Besides, the MIC in [4] (Pseudomonas aeruginosa, ATCC27853) was determined as 16 µg/mL (≈ 27.5 µM); in [5] (Staphylococcus aureus) it was 16 µg/mL (≈ 27.5 µM); with E. coli (ATCC 25922) (Escherichia coli, ATCC25922) it was 8 µg/mL (≈ 13.8 µM); with E. coli (DH5 alpha) (Escherichia coli), 8 µg/mL (≈ 13.8 µM); against S. aureus (Newman) (Staphylococcus aureus, NEWMAN), 16 µg/mL (≈ 27.5 µM); with M. smegmatis (MC^2 155) (Mycolicibacterium smegmatis, MC^2155), 0.5 µg/mL (≈ 0.86 µM). Moreover, the “mice rescued (survival)” value with P. aeruginosa ATCC 27853 came out at 40%. In the data set with P. aeruginosa biofilm, the “biofilm reduced / removed” value came to 75%.

Consider “Hex-Cys-Cys-DET2 polymer [Positively-charged polymer]”, for which the “hemolytic activity, in words” value with human red blood cells is on record as “only induced hemolysis at a high level of 10 mg/mL”.

With “Hex-Cys-Cys-DET-DMA [Neutralized polymer]”, the “hemolytic activity, in words” value with human red blood cells is “did not show any hemolytic activity”.

As to “Hex-Cys-Cys-DET-strep [Positively-charged PDC]”, the “effect of pH (6.0 vs 7.4) on MIC, in words” value in [6] was “MICs were unaffected by pH variation”. For the same compound, the “MIC P. aeruginosa (ATCC 27853)” value in data set [4] turned out to be 20 µg/mL. The “MIC S. aureus (MRSA ATCC33591)” value in [5] was found to be 20 µg/mL. Further, the “MIC E. coli (ATCC 25922)” value against E. coli (ATCC 25922) was 20 µg/mL. The “MIC E. coli (DH5 alpha)” value in the data set on E. coli (DH5 alpha) amounted to 20 µg/mL. The “MIC S. aureus (Newman)” value with S. aureus (Newman) is 10 µg/mL. For the same compound, in the data set on M. smegmatis (MC^2 155), the “MIC M. smegmatis (MC^2 155)” value was 1.25 µg/mL. For the same compound, the “HEK293 IC50” value in [7] is over 2000 µg/mL.

What is called MIC is the smallest concentration in the dilution series that meets the test's criterion for growth inhibition. Lower therefore signals inhibition by little substance.

The record behind these values is US11911406B2, “PH-responsive polymer-drug conjugates for enhanced antibacterial efficacy” (priority 2020, dated 2024).
